The values below come from ChEMBL document CHEMBL1152652, “Bioorganic synthesis of end-capped anti-HIV peptides by simultaneous cyanocysteine-mediated cleavages of recombinant proteins” (Bioorg Med Chem, 2009).

Where a SMILES comes first, the peptide text is derived from it. The star is where a group is joined. NH(2-oxoazepan-3S-yl) = O=C1NCCCC[C@@H]1N*; Aspartimide = O=C1C[C@H](N*)C(=O)N1; X1 = N=C1N[C@H](C(=O)*)CS1

In series [1] the test system is Human immunodeficiency virus 1. As to the kind of experiment: Antiviral activity against HIV1 NL4-3 infected in human HeLa cells assessed as inhibition of replication after 48 hrs by MAGI assay. Format: functional, organism-based. Conditions: Human immunodeficiency virus 1, NL4-3, HeLa.
A further series relates to HeLa. As to the kind of experiment: Cytotoxicity against human HeLa cells after 48 hrs up to 10 uM by MAGI assay. Format: cell-based.
A further series concerns Serum. As to the kind of experiment: Metabolic stability in 50% mouse serum assessed as degradation after 24 hrs. The format is ADME, cell-free.

The term EC50 denotes the concentration giving half of the maximal effect. `CC[C@H](C)[C@H](NC(=O)[C@H](CC(C)C)NC(=O)[C@H](CCC(=O)O)NC(=O)[C@H](CCC(=O)O)NC(=O)[C@@H](NC(=O)[C@H](CCCCN)NC(=O)[C@H](CCCCN)NC(=O)[C@@H](NC(=O)[C@H](Cc1ccc(O)cc1)NC(=O)[C@H](CCC(=O)O)NC(=O)[C@H](CCC(=O)O)NC(=O)[C@@H](NC(=O)[C@H](CCCCN)NC(=O)[C@H](CCCNC(=N)N)NC(=O)[C@H](CC(=O)O)NC(=O)[C@H](Cc1c[nH]c2ccccc12)NC(=O)[C@H](CCC(=O)O)NC(=O)[C@H](CCSC)NC(=O)[C@H](Cc1c[nH]c2ccccc12)NC(=O)[C@@H]1CSC(=N)N1)[C@@H](C)CC)[C@@H](C)O)[C@@H](C)CC)C(=O)N[C@@H](CCCCN)C(=O)N[C@@H](CCCCN)C(=O)N[C@@H](CO)C(=O)N[C@@H](CCC(N)=O)C(=O)N[C@@H](CCC(=O)O)C(=O)N[C@@H](CCC(N)=O)C(=O)N[C@@H](CCC(N)=O)C(=O)N[C@@H](CCC(=O)O)C(=O)N[C@@H](CCCCN)C(=O)N[C@@H](CC(N)=O)C(=O)N[C@@H](CCC(=O)O)C(=O)N[C@@H](CCCCN)C(=O)N[C@@H](CCC(=O)O)C(=O)N[C@@H](CC(C)C)C(=O)N[C@@H](CCCCN)C(=O)N[C@H]1CC(=O)NC1=O` (X1-WMEWDRKIEEYTKKIEELIKKSQEQQEKNEKELK-Aspartimide): the EC50 in series [1] was determined as 0.48 nM. Besides, the figures for the Activity result in the series with HeLa and in the series on Serum were “Non-toxic” and “Unstable”, respectively.

With `CC[C@H](C)[C@H](NC(=O)[C@H](CC(C)C)NC(=O)[C@H](CCC(=O)O)NC(=O)[C@H](CCC(=O)O)NC(=O)[C@@H](NC(=O)[C@H](CCCCN)NC(=O)[C@H](CCCCN)NC(=O)[C@@H](NC(=O)[C@H](Cc1ccc(O)cc1)NC(=O)[C@H](CCC(=O)O)NC(=O)[C@H](CCC(=O)O)NC(=O)[C@@H](NC(=O)[C@H](CCCCN)NC(=O)[C@H](CCCNC(=N)N)NC(=O)[C@H](CC(=O)O)NC(=O)[C@H](Cc1c[nH]c2ccccc12)NC(=O)[C@H](CCC(=O)O)NC(=O)[C@H](CCSC)NC(=O)[C@H](Cc1c[nH]c2ccccc12)NC(=O)[C@@H]1CSC(=N)N1)[C@@H](C)CC)[C@@H](C)O)[C@@H](C)CC)C(=O)N[C@@H](CCCCN)C(=O)N[C@@H](CCCCN)C(=O)N[C@@H](CO)C(=O)N[C@@H](CCC(N)=O)C(=O)N[C@@H](CCC(=O)O)C(=O)N[C@@H](CCC(N)=O)C(=O)N[C@@H](CCC(N)=O)C(=O)N[C@@H](CCC(=O)O)C(=O)N[C@@H](CCCCN)C(=O)N[C@@H](CC(N)=O)C(=O)N[C@@H](CCC(=O)O)C(=O)N[C@@H](CCCCN)C(=O)N[C@@H](CCC(=O)O)C(=O)N[C@@H](CC(C)C)C(=O)N[C@@H](CCCCN)C(=O)N[C@H]1CCCCNC1=O` (X1-WMEWDRKIEEYTKKIEELIKKSQEQQEKNEKELK-{NH(2-oxoazepan-3S-yl)}), in series [1], the concentration for a half-maximal effect (EC50) was found to be 0.58 nM. Also, the results for the Activity entry in the series on HeLa and in the series with Serum were “Non-toxic” and “Stable”, respectively.

As to “Ac-WMEWDRKIEEYTKKIEELIKKSQEQQEKNEKELK-NH2”, the EC50 in series [1] is 0.6 nM.

On to H-WMEWDRKIEEYTKKIEELIKKSQEQQEKNEKELK-OH, for which the EC50 in series [1] was 0.68 nM.
